Data on 1 substance can be found in patent publication US20240310360A1, “METHOD OF […] RESPONSE OF CELL GROUP TO TEST SUBSTANCE” (CANON KABUSHIKI KAISHA, priority 2023, published 2024).

Where two headings read alike, the source gives them in different places.

The test system of experiment [1] is PBMCs. Kind of experiment: Autofluorescence imaging FAD/NADH ratio of PBMCs after antigen stimulation (Example 2). It counts as cell-based. As to conditions: peptide solution 10 nM, PBMCs without preculturing. The method, then: PBMCs having reactivity to a test substance that differs from the reactivity in Example 1 were used here. The PBMCs used here were manufactured by Cellular Technology Limited, and thawed by following a manual provided by the manufacturer. Unlike Example 1, preculturing was skipped and the PBMCs were immediately presented to a test for examining reactivity to a test substance.
The thawed PBMCs were suspended in the CTL-Test Medium at a cell concentration of 7.2×10^6 cells/mL, and 250 μL each was seeded in a 24-well plate. As the test substance, a peptide solution manufactured by Cellular Technology Limited, specifically, CMV pp65 (495-503) Peptide (having a peptide concentration of 10 nM) was used, and 250 μL of this peptide solution was added to each of the wells containing the cells.
As a control cell group to which no test substances were added, cells to which 250 μL each of CTL-Test Medium was added instead of a peptide solution were used. After antigen stimulation, the cells were left to stand for 1 hour to 24 hours in a 5% CO2 incubator. From each well, an entire amount of cell suspension solution was collected and subjected to 5 minutes of centrifugation at 300 G. After the centrifugation, a supernatant was removed and cell pellets were suspended in 1,000 μL of PBS. Further, the resultant cell suspension solution was diluted 5 times with the PBS. Then, 100 μL of the diluted cell suspension solution was seeded onto a cover glass part (having a diameter of 16 mm) of a 35-mm glass bottom dish, and was used for bright field observation and autofluorescence observation.
The subsequent bright-field image acquisition, autofluorescence image acquisition, extraction and analysis of the color information of the autofluorescence images were performed by the same methods as the methods in Example 1.

For experiment [2], the system named is PBMCs. As to conditions: PBMCs used in Example 2; confirmed in advance by the manufacturer; cited from earlier work.
For experiment [3], the system named is PBMCs. As to conditions: PBMCs used in Example 1; confirmed in advance by the manufacturer; cited from earlier work.

As for “CMV pp65 (495-503) Peptide: peptide solution manufactured by Cellular Technology Limited; peptide that binds directly to an MHC (NLVPMVATV; UniProt P06725 495-503, looked up, fragment)”, the “drop in FAD/NADH ratio compared to PBMCs with no test substance added” value was “reproduced” in the experiment on PBMCs [1] (1 hour of stimulation), “hardly observed” in the experiment with PBMCs [1] (4 hours after stimulation) and “substantially no drop” in the experiment with PBMCs [1] (period from 4 hours to 24 hours after stimulation). In addition, the “reactivity of the PBMCs to the peptide (ELISpot test)” value with PBMCs [2] is recorded as “react strongly”; in the experiment on PBMCs [3], “react weakly”.
